The Ki is the dissociation constant of the complex between target and ligand, obtained from inhibition or displacement. For orientation: EC50 means the concentration giving half of the maximal effect. Low readings indicate higher potency in that assay, high ones lower potency in that assay.

Consider 13 compounds from ChEMBL document CHEMBL1129447 (J Med Chem, 1996).

A value given as a limit tells only on which side of the number the result lay.

Experiment [1] deals with T1, Adenosine receptor A2a (Rattus norvegicus, UniProt P30543).
T1 sequence (P30543 whole entry): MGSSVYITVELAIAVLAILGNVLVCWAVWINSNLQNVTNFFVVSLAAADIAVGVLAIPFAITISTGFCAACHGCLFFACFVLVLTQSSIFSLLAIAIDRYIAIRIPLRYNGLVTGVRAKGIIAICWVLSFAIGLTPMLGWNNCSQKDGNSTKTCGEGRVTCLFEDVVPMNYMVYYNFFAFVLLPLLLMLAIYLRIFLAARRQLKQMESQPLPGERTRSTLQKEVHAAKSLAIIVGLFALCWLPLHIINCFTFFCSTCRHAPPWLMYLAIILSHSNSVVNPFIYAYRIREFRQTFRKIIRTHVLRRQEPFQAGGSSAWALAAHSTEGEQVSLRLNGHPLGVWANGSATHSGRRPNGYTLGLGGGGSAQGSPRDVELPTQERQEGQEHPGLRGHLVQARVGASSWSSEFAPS
Description: Displacement of [3H]-CGS- 51680 from Adenosine A2A receptor of rat striatum.
In experiment [2] the target is T1, Adenosine receptor A2a. The source holds these as a separate data set.
Description: Vasorelaxation as Adenosine A2A receptor activity in rat aorta
Experiment [3] concerns the target T2, Adenosine receptor A1 (Rattus norvegicus, UniProt P25099).
T2 sequence (P25099 whole entry): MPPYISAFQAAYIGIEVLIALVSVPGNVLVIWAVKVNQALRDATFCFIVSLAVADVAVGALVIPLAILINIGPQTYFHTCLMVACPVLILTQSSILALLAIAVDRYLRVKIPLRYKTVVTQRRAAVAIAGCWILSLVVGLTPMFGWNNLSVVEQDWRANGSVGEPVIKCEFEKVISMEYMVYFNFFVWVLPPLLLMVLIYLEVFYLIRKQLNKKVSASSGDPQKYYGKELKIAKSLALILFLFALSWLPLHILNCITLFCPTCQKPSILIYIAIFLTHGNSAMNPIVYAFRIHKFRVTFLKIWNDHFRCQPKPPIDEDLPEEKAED
The experiment can be described thus: Adenosine A1 receptor mediated negative chronotropic activity in spontaneously beating rat atria. The format is functional.

Experiment [4] has as its target T2, Adenosine receptor A1.
Description: Displacement of [3H]CHA from Adenosine A1 receptor of rat brain

On to `CCCCCCc1nc(N)c2ncn([C@@H]3O[C@H](C(=O)NCC)[C@@H](O)[C@H]3O)c2n1`, for which the Ki is 136 nM on Adenosine receptor A2a [1] and more than 1 nM on Adenosine receptor A1 [4]. Further, the EC50 at Adenosine receptor A2a [2] is 1 nM; at Adenosine receptor A1 [3], more than 1 nM.

`CCCCC#Cc1nc(N)c2ncn([C@@H]3O[C@H](CO)[C@@H](O)[C@H]3O)c2n1`: the EC50 on Adenosine receptor A1 [3] was more than 1 nM. Moreover, on Adenosine receptor A1 [4], the affinity, expressed as Ki, was 98 nM.

With `CCCCC#Cc1nc(N)c2ncn([C@@H]3O[C@H](C(=O)NCC)[C@@H](O)[C@H]3O)c2n1`, the EC50 on Adenosine receptor A1 [3] is more than 1 nM.

In the case of `CCCC/C=C/c1nc(N)c2ncn([C@@H]3O[C@H](CO)[C@@H](O)[C@H]3O)c2n1`, the Ki on Adenosine receptor A2a [1] was determined as 14 nM; on Adenosine receptor A1 [4] it was 332 nM.

`CCNC(=O)[C@H]1O[C@@H](n2cnc3c(N)nc(C#CCCCc4ccccc4)nc32)[C@H](O)[C@@H]1O` came in with an EC50 at Adenosine receptor A1 [3] of more than 1 nM.

As to `CCNC(=O)[C@H]1O[C@@H](n2cnc3c(N)nc(/C=C\CCCc4ccccc4)nc32)[C@H](O)[C@@H]1O`, the Ki is 51 nM on Adenosine receptor A2a [1] and more than 1 nM on Adenosine receptor A1 [4]. In addition, the EC50 on Adenosine receptor A2a [2] and on Adenosine receptor A1 [3] was more than 1 nM in each case.

Take `CCCC/C=C\c1nc(N)c2ncn(C3O[C@H](C(=O)NCC)[C@@H](O)[C@H]3O)c2n1` (stereo partly drawn): the Ki amounted to 70 nM on Adenosine receptor A2a [1] and 951 nM on Adenosine receptor A1 [4]. In addition, the EC50 was 676 nM at Adenosine receptor A2a [2] and more than 1 nM on Adenosine receptor A1 [3].

As for `CCCC/C=C\c1nc(N)c2ncn([C@@H]3O[C@H](CO)[C@@H](O)[C@H]3O)c2n1`, the results for the Ki at Adenosine receptor A2a [1] and at Adenosine receptor A1 [4] were 757 nM and 618 nM, respectively. The compound further displayed an EC50 on Adenosine receptor A1 [3] of more than 1 nM.

As for `CCCC/C=C/c1nc(N)c2ncn([C@@H]3O[C@H](C(=O)NCC)[C@@H](O)[C@H]3O)c2n1`, the Ki on Adenosine receptor A2a [1] came out at 1.6 nM; at Adenosine receptor A1 [4], 251 nM. The EC50 is 594 nM on Adenosine receptor A2a [2] and more than 1 nM at Adenosine receptor A1 [3].

In the case of `CCCCCCc1nc(N)c2ncn(C3O[C@H](CO)[C@@H](O)[C@H]3O)c2n1` (stereo partly drawn), the Ki on Adenosine receptor A2a [1] and on Adenosine receptor A1 [4] was more than 1 nM throughout. This compound yielded an EC50 on Adenosine receptor A1 [3] of more than 1 nM.

On to `CCNC(=O)[C@H]1O[C@@H](n2cnc3c(N)nc(/C=C/c4ccccc4)nc32)[C@H](O)[C@@H]1O`, for which the Ki turned out to be 234 nM at Adenosine receptor A2a [1] and 117 nM on Adenosine receptor A1 [4]. The half-maximal effective concentration (EC50) on Adenosine receptor A2a [2] stood at 194 nM; on Adenosine receptor A1 [3], 420 nM.

On to `CCNC(=O)[C@H]1O[C@@H](n2cnc3c(N)nc(C#Cc4ccccc4)nc32)[C@H](O)[C@@H]1O`, for which the EC50 at Adenosine receptor A2a [2] and at Adenosine receptor A1 [3] was more than 1 nM in each case.

Take `CCNC(=O)[C@H]1O[C@@H](n2cnc3c(N)nc(/C=C/CCCc4ccccc4)nc32)[C@H](O)[C@@H]1O`: the Ki on Adenosine receptor A2a [1] was 3.5 nM; at Adenosine receptor A1 [4] it was 1020 nM. The EC50 at Adenosine receptor A2a [2] is 576 nM; at Adenosine receptor A1 [3], more than 1 nM.
